Results from paper PMC5238392, “Origin of anti-tumor activity of the cysteine-containing GO peptides and further optimization of their cytotoxic properties” (Scientific Reports, 2017).

What was measured:
[1] = tested on: HT-1080 cells; assay: FITC Annexin V / propidium iodide apoptosis assay, HT-1080; type: cell-based, human; conditions: 10 μM
Description: Already 2 h after administration of 10 μM dose, the system reaches a steady state with 18% of healthy cells, 17% of early apoptotic cells, and 58% of late apoptotic cells. It remains in this state for the entire period of observations, 24 h.
(§1) Figure 3 GO-203-induced apoptosis in HT-1080 and ZR-75-1 cells as assessed by FITC Annexin V (AnV) and propidium iodide (PI) double staining. (A–D) Flow cytometry histograms for the cells incubated for 4 h with 10 μM of GO-203 and the untreated (control) cells. (E–H) Apoptotic fractions in the GO-203-treated and untreated (control) cells as a function of incubation time and GO-203 concentration; color coding is explained in the legend. TEXT PRINTED IN THE PICTURE: (B) GO-203: HT-1080: IV.(1.90 %); HT-1080: III.(52.62 %); HT-1080: I.(19.45 %); HT-1080: II.(26.04 %) | (D) GO-203: ZR-75-1: IV.(8.19 %); ZR-75-1: III.(8.65 %); ZR-75-1: I.(37.84 %); ZR-75-1: II.(45.32 %)
(§2) The adherent cells were rinsed with PBS, harvested using trypsin-EDTA solution and suspended in the growth medium. To analyze cell cycle phase distribution, 200 μg/ml of saponin (Fluka, USA), 250 μg/ml RNase A, and 50 μg/ml of propidium iodide (both Sigma-Aldrich, USA) were added to each sample tube, thus obtaining DNA stain buffer. After 1 h incubation at room temperature, the samples were analyzed by flow cytometry. To detect apoptosis by flow cytometry, CellEvent Caspase-3/7 Green Flow Cytometry Assay Kit (Thermo Fisher Scientific, USA) and Annexin-V FITC conjugate (BD Biosciences, USA) in combination with propidium iodide have been employed following the manufacturer’s protocols.
(§3) Cell fluorescence was measured using CytoFLEX (Beckman Coulter, USA) flow cytometer equipped with 3 lasers (405, 488 and 633 nm). Cells were gated on FSC/SSC to remove debris. Mean fluorescence intensity from 10,000 cells was acquired.

[2] = tested on: ZR-75-1 cells; assay: FITC Annexin V / propidium iodide apoptosis assay, ZR-75-1; type: cell-based, human
Description: as §1
Similarly fast apoptotic process is observed in ZR-75-1, although this cell line is less susceptible to the cytotoxic effect of GO-203. 4 h after administration of 10 μM dose, 39% of the cells remain healthy, 43% undergo early apoptosis, and 9% are in the late apoptosis stage. This proportion remains unchanged after 24 h. The fact that GO-203-induced apoptosis occurs rapidly in both sensitive and relatively insensitive cell lines is relevant in the context of its cytotoxic mechanism (discussed later in the text).
Also illustrated in Fig. 3G,H is the dose-dependent response of the treated cells. […] It is possible that apoptotic ZR-75-1 cells in quadrant II undergo disintegration instead of moving to quadrant III, Fig. 3D. Importantly, the Annexin V data are consistent with the results of the MTS assay which registers limited damage to the ZR-75-1 cells, see Fig. 2.
as §2, §3

[3] = tested on: HT-1080 cells; assay: Caspase 3/7 activation assay (CellEvent / SYTOX), HT-1080; type: cell-based, human; conditions: 10 μM, 4 h, Fig. 4B
From the text: (§4) A complementary perspective on GO-203-induced apoptosis is provided by the caspase 3/7 activation assay, Fig. 4. In both HT-1080 and ZR-75-1, the data offer a clear view of the early and late apoptotic populations. The time dependence illustrated in Fig. 4E,F confirms that the onset of apoptosis occurs sufficiently rapidly in both cell lines – by the time of flow-cytometry observations the system has already approached the steady state. In the literature there is some evidence that activation of executioner caspases may precede the translocation of phosphatidylserine to the outer leaf of the membrane. While this could be in principle relevant for comparison between the Annexin V assay and caspase activation assay, one should bear in mind that in our case both assays offer a snapshot of a fairly advanced apoptotic process.
(§5) Figure 4 GO-203-induced apoptosis in HT-1080 and ZR-75-1 cells as assessed by the double staining with CellEvent caspase-3/7 green detection reagent and vital dye SYTOX. (A–D) Flow cytometry histograms for the cells incubated for 4 h with 10 μM of GO-203 and the untreated (control) cells. (E–G) Apoptotic fractions in the GO-203-treated and untreated (control) cells as a function of incubation time and GO-203 concentration. TEXT PRINTED IN THE PICTURE: (B) GO-203: HT-1080: IV.(0.11 %); HT-1080: III.(64.49 %); HT-1080: I.(12.21 %); HT-1080: II.(23.20 %) | (D) GO-203: ZR-75-1: IV.(0.40 %); ZR-75-1: III.(35.18 %); ZR-75-1: I.(28.95 %); ZR-75-1: II.(35.47 %)
as §2, §3

[4] = tested on: ZR-75-1 cells; assay: Caspase 3/7 activation assay (CellEvent / SYTOX), ZR-75-1; type: cell-based, human; conditions: 10 μM, 4 h, Fig. 4D
From the text: as §4, §5, §2, §3

[5] = tested on: human breast carcinoma cell line ZR-75-1; assay: MTS cell viability assay, ZR-75-1
Description: As a next step, we used MTS assay[27] to examine the effect of GO peptides on the viability of the four described cell cultures as a function of different treatment schemes. […] This treatment regimen is labeled 4 × 5 underneath the graph. Alternatively, we introduced 5 μM of peptide daily while exchanging the medium (denoted 4/5). Unlike the previous protocol, it avoids potential build-up of the peptide in the medium.
The treatment protocols are: 4 × 5 – four daily doses of 5 μM delivered without exchanging the growth medium; 4/5 – four daily doses of 5 μM delivered with exchanged growth medium; 1 × 5, 1 × 10, 1 × 15, and 1 × 20 – a single dose of 5, 10, 15, or 20 μM, respectively. MTS reagent was added to the wells 96 h after the first (and sometimes the only) application of the peptide and the optical density at 492 nm was measured to determine the fraction of the surviving cells.
The data are according to the MTS assay, where the optical density was measured 96 h after the application of the peptide.
Cell survival was measured using CellTiter 96 AQueous One Solution Cell Proliferation Assay (MTS test, Promega, USA). Cells have been seeded in a 96-well flat-bottom plate in 100 μl of culture medium (10^3 cells/well for A549, HT-1080, dermal fibroblasts and eMSC or 5 × 10^3 cells/well for ZR-75-1) and allowed to attach for 24 h. The starting amount of cells was chosen to account for their growth rate and degree of spreading such as to avoid excessive dilution in the beginning of the experiment or control cell overgrowth toward the end. After 24 h, 10 μl of peptide stock solution or PBS (control) were added to the wells. After 96 h, 20 μl of the MTS-reagent were added to each well and 1–2 h later optical density was measured at the wavelength 492 nm using the 96-well plate reader (Titertek Multiskan, Labsystems, Finland). All experiments were conducted in duplicate or triplicate.

[6] = 4 h, representative plot Fig. 3B
[7] = 10 μM, 4 h, representative plot Fig. 3D
[8] = 10 μM, 4 h after administration

[R]9CQCRRKN [GO-203]
early apoptotic cells (Annexin V/PI) ([1]; 2 h after administration): 17%
late apoptotic cells (Annexin V/PI) ([1]; 2 h after administration): 58%
healthy cells (Annexin V/PI) ([1]; 2 h after administration (steady state up to 24 h)): 18%
quadrant I fraction (Annexin V/PI dot plot) [1, 6]: 19.45%
quadrant II fraction (Annexin V/PI dot plot) [1, 6]: 26.04%
quadrant III fraction (Annexin V/PI dot plot) [1, 6]: 52.62%
quadrant IV fraction (Annexin V/PI dot plot) [1, 6]: 1.90%
quadrant I fraction (Annexin V/PI dot plot) [2, 7]: 37.84%
quadrant II fraction (Annexin V/PI dot plot) [2, 7]: 45.32%
quadrant III fraction (Annexin V/PI dot plot) [2, 7]: 8.65%
quadrant IV fraction (Annexin V/PI dot plot) [2, 7]: 8.19%
early apoptosis (Annexin V/PI) [2, 8]: 43%
late apoptosis stage (Annexin V/PI) [2, 8]: 9%
healthy cells (Annexin V/PI) ([2]; 10 μM, 4 h after administration (unchanged after 24 h)): 39%
viable cells at highest dose (Annexin V/PI) ([2]; 20 μM): a large proportion of the cells remains viable
quadrant I fraction (caspase-3/7 / SYTOX) [3]: 12.21%
quadrant II fraction (caspase-3/7 / SYTOX) [3]: 23.20%
quadrant III fraction (caspase-3/7 / SYTOX) [3]: 64.49%
quadrant IV fraction (caspase-3/7 / SYTOX) [3]: 0.11%
quadrant I fraction (caspase-3/7 / SYTOX) [4]: 28.95%
quadrant II fraction (caspase-3/7 / SYTOX) [4]: 35.47%
quadrant III fraction (caspase-3/7 / SYTOX) [4]: 35.18%
quadrant IV fraction (caspase-3/7 / SYTOX) [4]: 0.40%
Cell viability (MTS) ([5]; 1 × 5: single dose of 5 μM, 96 h): essentially inconsequential
Cell viability (MTS) ([5]; 1 × 20: single dose of 20 μM, 96 h): substantially cytotoxic
Cell viability (MTS) ([5]; 4/5: four daily doses of 5 μM with exchanged growth medium, 96 h): inefficient
Cell viability (MTS) ([5]; 4 × 5: four daily doses of 5 μM without exchanging growth medium, OD 492 nm 96 h after first application): considerable damage
